Experimental data: US11180486B2, “Indolylkojyl methane analogues, process of preparation thereof and use as inhibitor of cancer cells invasion and metastasis” (Council of Scientific & Industrial Research, priority 2017, dated 2021)

Experiments:
[1] = test system: MCF7 cells; experiment: Cell viability (MTT) assay; format: cell-based; conditions: Homo sapiens, MCF7, 48 h, 44 h + 4 h, mean ± SD of three experiments, read-out: IC50 values MCF7
Protocol: (§1) Cell Culture and Reagents. The cell lines used in this study were procured from American Type Culture Collection (ATCC), Manassas, USA. MCF7, T47D and fR2 cells were cultured in RPMI-1640 medium, whereas the MDA-MB-231 cells were grown in Leibovitz's (L-15) medium supplemented with 10% fetal bovine serum (Gibco) and 1% penicillin/streptomycin (Sigma) in a humidified CO2 incubator (New Brunswick Galaxy 170 R) with 5% CO2. Reagents such as phenylmethylsulfonyl fluoride (PMSF), dithiothreitol (DTT), DMSO, crystal violet, and Bradford's reagent were purchased from Sigma-Aldrich. Protease inhibitor cocktail was procured from Roche. The antibodies for human GRP78, Par-4, MMP-2, MMP-9, NF-kB, E-cadherin and TIMP-1 were procured from Santa-Cruz Biotechnology. The β-actin antibody and the secondary antibodies such as anti-rabbit IgG and anti-mouse IgG were procured from Sigma-Aldrich.
(§2) Cell Viability Assay. The cell viability was determined by standard MTT assay method. Briefly, MDA-MB-231, MCF7, T47D and fR2 cells were seeded in 96 well tissue culture plates (Nunc) at a density of 3×10^3 cells per well and treated with varying concentrations of the test compounds in triplicates. DMSO was taken as a vehicle and the final concentration of the DMSO was maintained at 0.2% in the culture medium. Doxorubicin was employed as a positive control. After 44 h of incubation, MTT dye solution was added into the medium and cells were incubated for another 4 h at 37° C. in 5% CO2. The amount of coloured formazan derivatives formed was measured by taking optical density (OD) using a microplate reader (TECAN, Infinite M200 Pro) at 570 nm and the percentage cell viability was calculated. The IC50 values were calculated using GraphPad Prism software (Version 5.0). Table 2. Cytotoxicity (IC50) of all synthesized compounds of invention against panel of human breast cancer cell lines (MDA-MB-231, MCF7, T47D) and normal breast epithelial (fR2) cells.

[2] = test system: MDA-MB-231 cells; experiment: Cell viability (MTT) assay; format: cell-based; conditions: Homo sapiens, MDA-MB-231, 48 h, 44 h + 4 h, mean ± SD of three experiments, read-out: IC50 values MDA-MB-231
Protocol: as §1, §2

[3] = test system: T47D cells; experiment: Cell viability (MTT) assay; format: cell-based; conditions: Homo sapiens, 48 h, 44 h + 4 h, mean ± SD of three experiments
Protocol: as §1, §2

[4] = test system: mouse mammary carcinoma (4T1) cells; format: in vivo; conditions: 100 mg/kg b.w. i.p., alternate days for two weeks
Protocol: In Vivo Anti-Tumor and Anti-Metastatic Efficacy Studies. To evaluate the antitumor and antimetastatic effect of 5 in vivo, healthy female Balb/c mice (b.w. 18-23 g) were taken. The experimental protocols were approved by the Institutional Animal Ethics Committee, CPCSEA, of Indian Institute of Integrative Medicine, Jammu. The animals were maintained at 22° C. with a 12 h light-dark cycle and free access to feed and water inside the institutional animal house. Proper care was taken to maintain them in a healthy condition and to avoid any risk of possible pathogenic contaminations. For subcutaneous implantation, the mice were randomized into two groups of 5 mice per group and 1.5 million mouse mammary carcinoma (4T1) cells in serum free RPMI media were injected subcutaneously into the mammary fat pad of each mouse. Either 1 week after the tumor cell implantation or when the tumor volume reached ˜150 mm^3, mice were injected intraperitoneally with either normal saline (NS) or parent compound 1 (100 mg/kg, b.w.) or 5 (30 mg/kg, b.w.) in each alternate days for two weeks. Tumor size was recorded on each alternate days post-cell injection and body weights were recorded once per week. Mice were sacrificed on the 15th day of treatment initiation and tumors were incised for its measurement. Metastatic lung nodules were counted using a dissecting microscope. Lungs were then minced into fine pieces, suspended in medium containing collagenase and kept in 37° C. incubator with vigorous shaking for 2 h. The suspension was then filtered with the help of 70 μm cell strainer (BD, USA) to get the single cell suspension. Then, the suspension was serially diluted for 3-4 times in selection medium containing 6-thioguanine, for the selection of 4T1 cells. Each dilution containing the lung cell suspension was then plated into individual petridishes and incubated at 37° C. and 5% CO2 for the growing of 4T1 cell colonies. After 15 days of incubation, cells were washed with PBS, fixed with methanol and stained with 0.2% crystal violet solution for 1 h. Images of the 4T1 colonies were observed, counted and photographed under an inverted microscope at 20× magnification.

Row | SMILES | IC50 [1] | IC50 [2] | IC50 [3] | decrease in metastatic lung nodules [4] | inhibition in tumor growth ([4]; vs normal saline) | melting point
1 | O=c1cc(CO)occ1O [Compound 1, 5-Hydroxy-2-(hydroxymethyl)-4H-pyran-4-one, reference compound] | 94.5 ± 2.68 µM | 87.2 ± 1.52 µM | > 100 µM | 16.7% | 23% | –
2 | CCCC(c1oc(CO)cc(=O)c1O)c1c[nH]c2ccccc12 (stereo not shown) [Compound 2, 2-(1-(1H-indol-3-yl)butyl)-3-hydroxy-6-(hydroxymethyl)-4H-pyran-4-one] | 45.2 ± 0.348 µM | 43.25 ± 0.416 µM | 43 ± 0.144 µM | – | – | 130 to 140 °C
3 | CCCCCC(c1oc(CO)cc(=O)c1O)c1c[nH]c2ccccc12 (stereo not shown) [Compound 3, 2-{1-(1H-indol-3-yl)hexyll}-3-hydroxy-6-(hydroxymethyl)-4H-pyran-4-one] | > 100 µM | 40.6 ± 0.621 µM | 43.5 ± 0.203 µM | – | – | 120 to 130 °C
4 | CCCCCCC(c1oc(CO)cc(=O)c1O)c1c[nH]c2ccccc12 (stereo not shown) [Compound 4, 2-(1-(1H-indol-3-yl)heptyl)-3-hydroxy-6-(hydroxymethyl)-4H-pyran-4-one] | 3.93 ± 0.288 µM | 3.84 ± 0.055 µM | 4.3 ± 0.443 µM | – | – | 115 to 125 °C
5 | CCCCCCCCCC(c1oc(CO)cc(=O)c1O)c1c[nH]c2ccccc12 (stereo not shown) [Compound 6] | > 100 µM | 40.6 ± 0.621 µM | > 100 µM | – | – | 110 to 120 °C
6 | CCCCCCCCCCC(c1oc(CO)cc(=O)c1O)c1c[nH]c2ccccc12 (stereo not shown) [Compound 7, 2-{1-(1H-indol-3-yl)undecyl}-3-hydroxy-6-(hydroxymethyl)-4H-pyran-4-one] | > 100 µM | 49.5 ± 0.448 µM | > 100 µM | – | – | 110 to 120 °C
7 | CCCCCCCCCCCC(c1oc(CO)cc(=O)c1O)c1c[nH]c2ccccc12 (stereo not shown) [Compound 8, 2-{1-(1H-indol-3-yl)dodecyl}-3-hydroxy-6-(hydroxymethyl)-4H-pyran-4-one] | > 100 µM | 45.2 ± 0.535 µM | > 100 µM | – | – | 105 to 115 °C
8 | CCCCCCCCCCCCCCCC(c1oc(CO)cc(=O)c1O)c1c[nH]c2ccccc12 (stereo not shown) [Compound 9, 2-{1-(1H-indol-3-yl)hexadecyl}-3-hydroxy-6-(hydroxymethyl)-4H-pyran-4-one] | > 100 µM | 45.7 ± 0.195 µM | > 100 µM | – | – | 95 to 105 °C
9 | CCCCCCCCCCCCCCCCCC(c1oc(CO)cc(=O)c1O)c1c[nH]c2ccccc12 (stereo not shown) [Compound 10, 2-{1-(1H-indol-3-yl)octadecyl}-3-hydroxy-6-(hydroxymethyl)-4H-pyran-4-one] | > 100 µM | 48.5 ± 0.341 µM | > 100 µM | – | – | 90 to 100 °C
10 | COc1cccc2c1C(=O)c1c(O)c3c(c(O)c1C2=O)C[C@@](O)(C(=O)CO)C[C@@H]3O[C@H]1C[C@H](N)[C@H](O)[C@H](C)O1 [DOXO, doxorubicin, reference compound] | 0.085 ± 0.125 µM | 0.22 ± 0.185 µM | 0.081 ± 0.211 µM | – | – | –
